What was measured:
[1] = test system: IL-1β; assay: Inhibition of IL-1β secretion in LPS-stimulated PBMCs; format: cell-based; conditions: Homo sapiens, PBMC; PBMCs stimulated with LPS (50 pg/mL); read-out: EC50 for inhibiting IL-1β
Protocol: (§1) Objective: Test 3-(methylsulfonyl)acrylonitrile for inhibition of cytokine secretion in peripheral blood mononuclear cells (PBMCs) stimulated with lipopolysaccharide (LPS).
(§2) Cytokines: IL-1β, IL-6, TNFα
(§3) Test Compound Dose Concentrations: 50, 10, 5, 1, 0.5, 0.1 μM
(§4) Cells negative control: Vehicle only/No LPS
(§5) Positive control: Dexamethasone (100 nM, n=2)
(§6) 1. Microtiter plates were seeded with 1×10^4 PBMCs/well in […], culture medium (RPMI 1640, 10% FBS, 1% Pen/Strep, 2 mM L-Alanyl-L-glutamine)
(§7) 2. The plates were incubated at 37° C. in 5% CO2 for 1 hour.
(§8) 3. 10 μL of test compound (at different concentrations), dexamethasone, and vehicle controls were added to appropriate wells, and the plates were incubated at 37° C. in 5% CO2 for 1 hour.
(§9) 4. 40 μL of LPS (50 pg/mL final) were added and the plates were incubated at 37° C. in 5% CO2 for 1 hour.
(§10) 5. The plates were centrifuged at 1000 rpm for 10 minutes and supernatants were collected.
(§11) 6. The supernatants were assayed for IL-1β, IL-6, TNFα levels using the Luminex Bead kit.
(§12) 7. EC50 values were determined.

[2] = test system: IL-6; assay: Inhibition of IL-6 secretion in LPS-stimulated PBMCs; format: cell-based; conditions: Homo sapiens, PBMC; PBMCs stimulated with LPS (50 pg/mL); read-out: EC50 for inhibiting IL-6
Protocol: as §1, §2, §3, §4, §5, §6, §7, §8, §9, §10, §11, §12

[3] = test system: TNFα; assay: Inhibition of TNFα secretion in LPS-stimulated PBMCs; format: cell-based; conditions: Homo sapiens, PBMC; PBMCs stimulated with LPS (50 pg/mL); read-out: EC50 for inhibiting TNFα
Protocol: as §1, §2, §3, §4, §5, §6, §7, §8, §9, §10, §11, §12

[4] = test system: arachidonic acid induced ear swelling; assay: Topical arachidonic acid induced ear swelling model, oral administration; format: in vivo, mice; conditions: for % Inhibition: ear swelling at 60 minutes
Protocol: The test compound, dexamethasone (positive control), and vehicle were orally administered to mice and evaluated for anti-inflammatory activity in the topical arachidonic acid induced ear swelling model in mice. […] All animals were maintained in a controlled temperature (22-24° C.) and humidity (60%-70%) environment with 12-hour light/dark cycles for at least one week prior to use. Arachidonic acid (0.5 mg in 20 μL acetone) was applied topically onto the anterior and posterior surfaces of the right ear of test animals to induce inflammation. […] At 60 minutes after arachidonic acid induction of ear edema, the thickness of the right ear and the left ear was measured and the difference calculated as an indication of the inflammation in the right ear.

[5] = test system: tail-flick latency; assay: Tail-flick latency (52° C. water bath), potentiation of morphine analgesia; format: in vivo, mice
Protocol: The response of the mice to nociceptive stimuli was evaluated using the time of tail-flick or tail-flick latency from 52° C. water bath. Briefly, the animal was placed in a restrainer with its tail outside. The tail (distal ⅓rd) was immersed into 52° C. water and the time for the mouse to flick its tail out of the water was recorded. The maximum exposure permitted was 10 seconds. If there was no response within 10 seconds, the animal tail was removed from the water to prevent damage to the tail. Baseline data were collected using the tail flick procedure 2 times over 1 hour, prior to any drug administration. The last baseline response data point was used as basal tail flick latency.
3-(methylsulfonyl)acrylonitrile was dissolved in 0.5% methyl cellulose (MC) to 2 mg/mL, and orally administered to mice (n=5) in a volume of 10 ml/kg (20 mg/kg), 1 hour prior to morphine dosing. One mL plastic disposal tuberculin syringes (Becton Dickinson & Co. Franklin Lakes, N.J.) and 20 gauge×38 mm flexible plastic feeding tubes (Instech Laboratories, Plymouth Meeting, Pa.) were used for oral drug administration. Morphine at 5 mg/kg in saline was subcutaneously administered to mice at time zero.
Tail flick measurements were made at 5, 15, 30, 45, 60, and 75 minutes post-morphine administration.
Statistical evaluation was done using an appropriate analysis of variance (ANOVA) using tail flick latencies. […] Analysis with p-values <0.05 is considered significant.

CS(=O)(=O)C=CC#N [3-(methylsulfonyl)acrylonitrile]
EC50 [1]: 160 nM
EC50 [2]: 190 nM
EC50 [3]: 300 nM
% Inhibition ([4]; 0.1 mg/kg oral gavage 1 hour before arachidonic acid): 11%
% Inhibition ([4]; 0.3 mg/kg oral gavage 1 hour before arachidonic acid): 11%
% Inhibition ([4]; 1 mg/kg oral gavage 1 hour before arachidonic acid): 9%
% Inhibition ([4]; 3 mg/kg oral gavage 1 hour before arachidonic acid): 13%
% Inhibition ([4]; 10 mg/kg oral gavage 1 hour before arachidonic acid): 26%
inhibition in arachidonic acid induced ear swelling (in words) ([4]; 10 mg/kg oral, at 60 minutes, vs vehicle, t-test p<0.05): significant inhibition
analgesic effect (tail flick), morphine plus compound ([5]; 20 mg/kg oral 1 hour before morphine 5 mg/kg s.c., 75 minutes post dosing): strong analgesic effects
latency of tail flick, morphine plus compound vs morphine alone ([5]; 20 mg/kg oral 1 hour before morphine 5 mg/kg s.c., measured at 30, 60, and 75 minutes post morphine dosing): increases the latency of tail flick significantly

C[C@@H]1C[C@H]2[C@@H]3CCC4=CC(=O)C=C[C@]4(C)[C@@]3(F)[C@@H](O)C[C@]2(C)[C@@]1(O)C(=O)CO [Dexamethasone, reference compound]
% Inhibition ([4]; 0.3 mg/kg oral gavage 3 hour before arachidonic acid): 39%

CN1CC[C@]23c4c5ccc(O)c4O[C@H]2[C@@H](O)C=C[C@H]3[C@H]1C5 [morphine, reference compound]
analgesic effect (tail flick), morphine alone ([5]; morphine 5 mg/kg s.c., 75 minutes post dosing): no effect
